Results from US6818215B2, “Antibodies to senescent cell-derived inhibiters of DNA synthesis” (priority 1991, dated 2004).
Values belong to the molecule of their own block, whether it stands above or below them.

Tests used:
[1] = test system: normal human neonatal foreskin fibroblast cells (strain HCA2); test: Growth arrest by tritiated thymidine incorporation after DNA damaging / growth arrest agents; assay type: cell-based; settings: doses as in Table 10; tritiated thymidine added 16 hours after treatment for 8 hours
Experimental: (§1) To evaluate the effect of DNA damaging agents on SDI mRNA production, normal human neonatal foreskin fibroblast cells (strain HCA2); an immortalized cell line (TE85, obtainable from the American Type Culture Collection, Rockville, Md., US), and the above-described MDAH 041 cell lines were employed. All cells were cultured in Eagle's minimal essential medium with Earl's salts plus 10% fetal bovine serum (Gibco BRL, Gaithersburg, Md., US) in 5% CO2 at 37° C., or in Hanks salts plus 10% fetal bovine serum at 37° C. HCA2 cells achieve approximately 80 population doublings before becoming senescent. The cells were used at population doubling 27 or less.
(§2) For UV irradiation, cells were cultured in 150 cm^2 tissue culture dishes. Immediately prior to treatment the medium was removed and the dishes, without lids, were placed in a Stratagene (La Jolla, Calif., US) StratalinkerUV cross-linking device and irradiated with a dose of 30 J/m^2. Fresh serum-supplemented medium was then added and the cells were incubated at 37° C., 5% CO2. γ-irradiation was performed on cells in complete cell culture medium in 25 cm^2 tissue culture flasks, using a fixed ^137Cs source. The dose rate was 4.21 Gy/min. Exposure was to 4 Gy.
(§3) Tritiated thymidine was added 16 hours following each such treatment and the cells were incubated for 8 hours, fixed and processed for autoradiography; as described above. RNA was harvested 4 or 24 hours post treatment using RNAzol B (Cinna/Biotecx, Houston, Tex.) according to the manufacturer's protocol. 10-20 μg of RNA was separated on a 1.2% agarose gel with 20% formaldehyde, transferred to a Gene screen plus (EN, Boston, Mass.) membrane, probed, and quantitated. Fold induction was determined by comparing treated samples with untreated controls. Controls were mock treated cells put through the same washing, media change, transportation, and inadvertent temperature fluctuation as those receiving treatment. Controls for agents dissolved in ethanol or dimethyl sulfoxide were exposed to the same concentration of the solvent alone. SDI-1 RNA values were normalized to GAPBH levels.

HepG2 cells [2] = test: Cell Proliferation Kit-XTT, metabolic activity; assay type: cell-based, Human; settings: 20 nM; 72 h
Experimental: The effect of 9NC (5 to 80 nM) on cell proliferation and DNA synthesis was evaluated by the Cell Proliferation Kit-XTT (Boehringer Mannheim Corp., IN), a non-radioactive, calorimetric ELISA assay which reflects mitochondrial dehydrogenase activity. The assay is based on the cleavage of the yellow tetrazolium salt XTT to form an orange formazan dye by dehydrogenase activity in active mitochondria. This conversion occurs only in living cells and correlates with their overall metabolic activity.
(§4) Human hepatoblastoma cells, HepG2 cells were obtained from the American Type Culture Collection and maintained in RPMI-1640 medium (GIBCO, Grand Island, N.Y.) supplemented with 10% fetal bovine serum (GIBCO), 100 units/ml of penicillin, […] of streptomycin, […] of amphotericin (Sigma Chemical Co.), and 4 mM L-glutamine (GIBCO). The cell cultures were incubated at 37° C. in a humidified CO2 (5%) atmosphere. The cell number in untreated and 9NC-treated cultures was determined with the aid of cell counter (Coulter Electric, Inc., Hialeah, Fla.) and cell viability was monitored by trypan blue dye exclusion.
9NC was semisynthesized from CPT and purified as described by Wani, M. C. et al. (J. Med. Chem. 29:2358-2363 (1986)). A fine suspension of 9NC (10 μM) was prepared in polyethylene glycol (PEG 400; Aldrich, Milwaukee, Wis.), divided into small aliquots and stored at −80° C. until used. […]

HepG2 cells [3] = test: BrdU incorporation ELISA, DNA synthesis; assay type: cell-based, Human; settings: 20 nM; 72 h
Experimental: as §4
DNA synthesis was measured by 5-bromo-2′-deoxy-uridine (BrdU) incorporation into cellular DNA following 24 h and 72 h. treatment with 9NC using the Cell Proliferation Assay Kit-BrdU/ELISA (Boehringer Mannheim Corp.). Inhibition of DNA synthesis correlated with the length of 9NC treatment and the concentration of 9NC in the cell culture.

HepG2 cells [4] = test: Cell number by cell counter; assay type: cell-based, Human; settings: 20 nM; 72 h
Experimental: as §4
This inhibitory effect was not associated with cell death as assessed by trypan blue dye exclusion.

HepG2 cells [5] = test: Phase contrast microscopy, cell size; assay type: cell-based, Human; settings: 9NC-treated cells
Source text: After 3 to […] of treatment the morphology of the cells remained stable with very little change during the three to four week culture period. Overall, cells appeared to be healthy and metabolically active, and resembled the morphology of primary human hepatocytes grown on plastic surfaces. Virtually no cell proliferation was observed following removal of 9NC and the cells maintained a differentiated phenotype without growth.

[6] = test system: SDI-1 mRNA in HepG2 cells; test: Northern blot of SDI-1 mRNA (SDI-1/GAPDH) in 9NC-treated cells; assay type: cell-based, Human
Experimental: Therefore, initial studies to evaluate the levels of SDI-1 were performed with low doses of 9NC. Total RNA was isolated from HepG2 cells treated with 5 nM and 20 nM 9NC for 72 h and the levels of SDI-1 mRNAs expression in cells were examined by Northern blot hybridization analysis. […] The relative amount of SDI-1 mRNA in each sample was calculated as the ratio of SDI-1/GAPDH.
Caffeine abolishes G2 cell cycle checkpoint induced by DNA-damaging agents (Traganos, F. et al., Canc. Res. 53:4613-4618 (1993); Lau, C. C. et al., Proc. Natl. Acad. Sci. (U.S.A.) 79:2942-2946 (1982)). To assess the specificity of SDI-1 induction by 9NC, the levels of SDI-1 expressions were evaluated via Northern blot analysis after simultaneous addition of caffeine (1 mM) and 9NC. […] To establish the kinetics of 9NC-induced upregulation of SDI-1 gene, the cells cultured for 24 h in control medium were treated with 20 nM of 9NC for 0.5 h, 1.5 h, 3 h, 6 h, 12 h, and 24 h respectively.

SDI-1 mRNA = test: Northern analysis of SDI-1 RNA after DNA damaging / growth arrest agents; settings: bleomycin 75 μg/ml 4 hr; etoposide 400 μM 8 hr; H2O2 400 μM 1 hr; MMS 100 μg 4 hr; Mitomycin C 5 μg/ml 30 hr; CdCl2 250 μM 1 hr; hydroxyurea 2 mM 24 hr; prostaglandin A2 10 μg/ml 24 hr
Experimental: as §1, §2, §3

[7] = test system: SDI-1 message in MDAH 041; test: SDI-1 message level after agents in cells lacking functional p53; assay type: cell-based, human; settings: MDAH 041 (no p53); agents of Table 10
Experimental: as §1, §3
(§5) This gene also requires functional p53 for induction by γ-irradiation but not by most other agents (Zhan, Q. et al., Molec. Cell. Biol. 13:4242-4250 (1993)). GADD45 is a member of a family of genes that were identified based upon their induction by both growth arrest and DNA damage (Fornace, A. J. et al., Molec. Cell. Biol. 9:4196-4203 (1989)). […] The above methods can be used to identifiy such additional regulators.

SDI-1 message in TE85 = test: as above; assay type: cell-based, human; settings: TE85 (mutant p53); agents of Table 10
Experimental: as §1, §3, §5

[8] = test system: cells in medium containing 0.5% FBS; test: SDI-1 antisense oligonucleotide, tritiated thymidine incorporation in low serum; assay type: cell-based; settings: 1, 2 or 5 μM on Days 1, 3, 5; harvested day 7
Experimental: Cells were cultured in medium containing 10% fetal bovine serum (FBS) for approximately one week, at which time the medium was replaced with medium containing 0.5% FBS. The cells were divided into control cells and experimental cells. On Day 1, experimental cells were provided with either 1, 2 or 5 μM of the above-described oligonucleotide; Control cells received no oligonucleotide. On Day 3, and again on Day 5, all cells received fresh medium containing 0.5% FBS; experimental cells received additional oligonucleotides (1, 2 or 5 μM). On Day 6, tritiated thymidine was added to the culture media and the cells were harvested on day 7.

cyclin/cdk2 complexes = molecular target: T1, cyclin/cdk2 complexes (Homo sapiens, UniProt P24941); test: Histone H1 kinase activity of cyclin/cdk2 complexes immunoprecipitated from HeLa cell extracts; assay type: biochemical; settings: complexes immunoprecipitated by cdk2 antisera
T1 construct: immunoprecipitated from HeLa cell extracts by cdk2 antisera; endogenous in cells; host or cells: HeLa cell extracts, immunoprecipitated with cdk2 antisera
Source text: The physiological significance of inhibition of cell proliferation by overexpression of SDI-1 is strengthened by the finding that SDI-1 can inhibit the kinase activity of cyclin/cdk2 complexes.
[…]

young cells = test: Cellular uptake of GST-SDI-1 fusions and quiescence; assay type: cell-based
cdk2 protein = molecular target: T2, cdk2 protein (Homo sapiens, UniProt P24941); test: Binding of in vitro translated SDI-1 deletion mutants to purified cdk2, anti-cdk2 immunoprecipitation; settings: 45 μl translation product, 1 ug cdk2, 4° C.
T2 construct: host or cells: baculovirus expression system
Experimental: To determine whether the DNA synthesis inhibition caused by these mutants was occurring through inhibition of cdk kinases, the binding of in vitro translated deletion mutant proteins products with purified cdk2protein was examined. Thus, the various deletion mutants of SDI-1 were translated in reticulocyte lysates (Promega) using pBluescript based plasmids as transcription templates for the T7 RNA polymerase. For in vitro binding, 45 μl of the translation product was added to 500 μl binding buffer (50 mM Tris/HCl, pH 7.5, 120 mM NaCl, 2 mM EDTA, 0.1% NP-40, 1 mM NaF, 0.1 m.M sodium vanidate, 5 μg/ml leupeptin, 5 μg/ml soybean trypsin inhibitor, 5 μg/ml aprotinin) containing 1 ug cdk2 protein purified from a bacculovirus expression system. The mixture was gently rocked for 1 hour at 4° C. and then 7.5 μg anti-cdk2 rabbit polyclonal antibody was added. Mixing was continued for 1 hour at 4° C. The immunocomplex was absorbed by incubation with 40 μl protein G plus A beads for 2 hr. The matrices were then washed three times with 0.5 ml of binding buffer prior to electrophoresis and autoradiography.

Molecule: COc1cc([C@@H]2c3cc4c(cc3[C@@H](O[C@@H]3O[C@@H]5CO[C@@H](C)O[C@H]5[C@H](O)[C@H]3O)[C@H]3COC(=O)[C@H]23)OCO4)cc(OC)c1O [etoposide]
% Growth Arrest [1]: 100%

Molecule: CC[C@@]1(O)C(=O)OCc2c1cc1n(c2=O)Cc2cc3c([N+](=O)[O-])cccc3nc2-1 [9NC]
suppression of metabolic activity (HepG2 cells [2]): approximately 20%
decrease in DNA synthesis (HepG2 cells [3]): at least 4 fold
decrease in cell numbers (HepG2 cells [4]): at least 2 fold
increased cell size (HepG2 cells [5]): 2 to 5 fold
time at which SDI-1 gene expression reached maximum ([6]; 20 nM, 0.5-24 h): 24 h
increase in SDI-1 expression (SDI-1/GAPDH) ([6]; 20 nM, 72 h): At least 3 fold

Molecule: [Cl][Cd][Cl] [CdCl2, cadmium chloride]
SDI-1 Level (Fold induction of SDI-1 at 24 hour level) (SDI-1 mRNA): 1.3 Fold induction
% Growth Arrest [1]: 0%

Molecule: Cn1c(=O)c2c(ncn2C)n(C)c1=O [caffeine]
effect on SDI-1 expression ([6]; caffeine (1 mM) alone): no appreciable effect
effect on 9NC-dependent induction of SDI-1 expression ([6]; simultaneous addition of caffeine (1 mM) and 9NC): abrogated

Molecule: NC(=O)NO [hydroxyurea]
% Growth Arrest [1]: 100%
SDI-1 message level (Control = 1) [7]: 2.5
SDI-1 message level (Control = 1) (SDI-1 message in TE85): 7.5

Molecule: CO[C@@]12[C@H](COC(N)=O)C3=C(C(=O)C(C)=C(N)C3=O)N1C[C@@H]1N[C@@H]12 [Mitomycin C, mitomycin C]
SDI-1 Level (Fold induction of SDI-1 at 24 hour level) (SDI-1 mRNA): 2.8 Fold induction
% Growth Arrest [1]: 100%
SDI-1 message level (Control = 1) (SDI-1 message in TE85): 2.5

SDI-1 Level (Fold induction of SDI-1 at 24 hour level) (SDI-1 mRNA): 6.1 Fold induction
Molecule: CCCCC[C@H](O)/C=C/[C@H]1C=CC(=O)[C@@H]1C/C=C\CCCC(=O)O [prostaglandin A2]
% Growth Arrest [1]: 100%

Molecule: COS(C)(=O)=O [MMS, methyl methane sulfonate]
% Growth Arrest [1]: 53%

Molecule: bleomycin
SDI-1 Level (Fold induction of SDI-1 at 24 hour level) (SDI-1 mRNA): 11.8 Fold induction
% Growth Arrest [1]: 100%

Molecule: OO [H2O2, hydrogen peroxide]
% Growth Arrest [1]: 95%
SDI-1 message level (Control = 1) [7]: 3.3
SDI-1 message level (Control = 1) (SDI-1 message in TE85): 4.0

Molecule: AGCCGGTTCTGACATGGCG (chemistry not given here) [antisense oligonucleotide]
tritiated thymidine incorporated into DNA relative to control cells [8]: increase

Molecule: GST-SDI-1 fusion protein: Schistosoma japonicum GST 1-226, hinge Pro-Arg-Gly-Asp-Pro-Pro-Ala, SDI-1; SEQ ID NO:11; printed as SDI-1 in Table 8
amount giving half maximal inhibition of histone H1 kinase activity (cyclin/cdk2 complexes): 250 ng
quiescence of exposed young cells (young cells): exhibited quiescence
detection of fusion protein within the cells (young cells; provided to young cells): detectable within the cells

binding to purified cdk2 protein (cdk2 protein): bound cdk2 protein efficiently
B1: 72-77: SDI-1 mutant with amino acids 72-77 deleted, HA tagged (protein)
chain: MSEPAGDVRQNPCGSKACRRLFGPVDSEQLSRDCDALMAGCIQEARERWNFDFVTETPLEGDFAWERVRGLPRGLPTGPRRGRDELGGGRRPGTSPALLQGTAEEDHVDLSLSCTLVPRSGEQAEGSPGGPGDSQGRKRRQTSMTDFYHSKRRLIFSKRKP
modifications: left off: small tags and cut ends
notes: SDI-1 mutant with amino acids 72-77 deleted, HA tagged
